We go through four sequences from US20070128217A1 (priority 2003, published 2007).

The test system of test [1] is rabbit serum obtained by immunizing a rabbit with the SARS-CoV strain Frankfurt 1. Type of test: binding. Also on record: Binding of a rabbit serum to linear peptides / Binding of a rabbit serum to looped peptides / Rabbit serum linear peptides / Rabbit serum looped peptides / Binding of a rabbit serum to linear peptides of protein N of SARS-CoV Urbani (Rabbit serum linear peptides) / Binding of a rabbit serum to looped/cyclic peptides of protein N of SARS-CoV Urbani (Rabbit serum looped peptides): unit not given here.

Test [2] deals with antibodies in sera from SARS patients (sera 1a, 1b, 2, 6, 37, 62, London, SARS-yellow, SARS-green). Type of test: binding, human. Also on record: Binding of serum 6 to linear peptides of protein X1 of SARS-CoV Urbani / Binding of serum 37 to linear peptides of protein X1 of SARS-CoV Urbani / Binding of serum 6 to looped/cyclic peptide (PEPSCAN-ELISA) / Binding of serum 37 to looped/cyclic peptide (PEPSCAN-ELISA) / Binding of serum 37 to looped/cyclic peptides of protein X1 of SARS-CoV Urbani / Binding of serum 6 to linear peptides of protein X2 / Binding of serum 37 to linear peptides of protein X2 / Binding of serum 37 to looped/cyclic peptides of protein X2 of SARS-CoV Urbani / Binding of serum 6 to linear peptides of protein M of SARS-CoV Urbani / Binding of serum 37 to linear peptides of protein M of SARS-CoV Urbani / Binding of serum 6 to looped/cyclic peptides of protein M of SARS-CoV Urbani / Binding of serum 37 to looped/cyclic peptides of protein M of SARS-CoV Urbani / Binding of serum 6 to linear peptides of protein X3 of SARS-CoV Urbani / Binding of serum 37 to linear peptides of protein X3 of SARS-CoV Urbani / Binding of serum 37 to looped/cyclic peptides of protein X3 of SARS-CoV Urbani / Binding of serum 6 to linear peptides of protein X4 of SARS-CoV Urbani / Binding of serum 37 to linear peptides of protein X4 of SARS-CoV Urbani / Binding of serum 37 to looped/cyclic peptides of protein X4 of SARS-CoV Urbani / Binding of serum 6 to linear peptides of protein X5 of SARS-CoV Urbani / Binding of serum 37 to linear peptides of protein X5 of SARS-CoV Urbani / Binding of serum 37 to looped/cyclic peptides of protein X5 of SARS-CoV Urbani / Binding of serum 6 to linear peptides of protein N of SARS-CoV Urbani / Binding of serum 37 to linear peptides of protein N of SARS-CoV Urbani / Binding of serum 6 to linear peptide (PEPSCAN-ELISA) / Binding of serum 1a to looped/cyclic peptides of protein N of SARS-CoV Urbani / Binding of serum 1b to looped/cyclic peptides of protein N of SARS-CoV Urbani / Binding of serum 2 to looped/cyclic peptides of protein N of SARS-CoV Urbani / Binding of serum 6 to looped/cyclic peptides of protein N of SARS-CoV Urbani / Binding of serum 37 to looped/cyclic peptides of protein N of SARS-CoV Urbani / Binding of serum 62 to looped/cyclic peptides of protein N of SARS-CoV Urbani / Binding of serum London to looped/cyclic peptides of protein N of SARS-CoV Urbani / Binding of serum SARS-green to looped/cyclic peptides of protein N of SARS-CoV Urbani: unit not given here.

Test [3] concerns control sera (pooled serum of ten healthy LUMC hospital workers; commercial negative donor pooled serum from the Dutch bloodbank). Type of test: binding, human. Also on record: Binding of Control serum LUMC to linear peptides / Binding of Control serum Blood-bank to linear peptides / Binding of Control serum LUMC to looped peptides / Binding of Control Serum Blood-Bank to Looped peptides / Binding of Control serum LUMC to linear peptides of the protein M of SARS-CoV Urbani / Binding of Control serum Blood-bank to linear peptides of the protein M of SARS-CoV Urbani / Binding of Control serum LUMC to looped peptides of the protein M of SARS-CoV Urbani / Binding of Control Serum Blood-Bank to Looped peptides of the protein M of SARS-CoV Urbani: unit not given here.

As for LVLKMLHSSSLTSLL, in test [1], the “Binding of a rabbit serum to linear peptides” value came to 0.3 and the “Binding of a rabbit serum to looped peptides” value worked out at 0.4. In test [2], the “Binding of serum 1a to linear peptides of protein X2” value came to 0.6, the “Binding of serum 1a to looped/cyclic peptides of protein X2 of SARS-CoV Urbani” value turned out to be 0.6, the “Binding of serum 1b to linear peptides of protein X2” value was 0.4 and the “Binding of serum 1b to looped/cyclic peptides of protein X2 of SARS-CoV Urbani” value was found to be 0.5. Also, in test [2], the “Binding of serum 2 to linear peptides of protein X2” value is given as 0.3, the “Binding of serum 2 to looped/cyclic peptides of protein X2 of SARS-CoV Urbani” value came to 0.3, the “Binding of serum 6 to linear peptides of protein X2” value is given as 0.3 and the “Binding of serum 6 to looped/cyclic peptides of protein X2 of SARS-CoV Urbani” value is recorded as 0.4. In addition, in test [2], the “Binding of serum 37 to linear peptides of protein X2” value is 0.4, the “Binding of serum 37 to looped/cyclic peptides of protein X2 of SARS-CoV Urbani” value was 0.4, the “Binding of serum 62 to linear peptides of protein X2” value was determined as 0.5 and the “Binding of serum 62 to looped/cyclic peptides of protein X2 of SARS-CoV Urbani” value stood at 0.6. Besides, in test [2], the “Binding of serum London to linear peptides of protein X2” value is listed as 0.3, the “Binding of serum London to looped/cyclic peptides of protein X2 of SARS-CoV Urbani” value is reported as 0.2, the “Binding of serum SARS-green to linear peptides of protein X2” value was 0.5 and the “Binding of serum SARS-green to looped/cyclic peptides of protein X2 of SARS-CoV Urbani” value worked out at 0.3. In test [2], the “Binding of serum SARS-yellow to linear peptides of protein X2” value came to 0.4 and the “Binding of serum SARS-yellow to looped/cyclic peptides of protein X2 of SARS-CoV Urbani” value worked out at 0.4. In test [3], the “Binding of Control Serum Blood-Bank to Looped peptides” value is 0.7, the “Binding of Control serum Blood-bank to linear peptides” value is given as 0.5, the “Binding of Control serum LUMC to linear peptides” value was 0.2 and the “Binding of Control serum LUMC to looped peptides” value is listed as 0.6.

As to LVRYNTRGNTYSTAW, in test [1], the “Rabbit serum linear peptides” value was 0.7 and the “Rabbit serum looped peptides” value is given as 0.3. In test [2], the “Binding of serum 1a to linear peptides of protein X5 of SARS-CoV Urbani” value was determined as 0.7, the “Binding of serum 1a to looped/cyclic peptides of protein X5 of SARS-CoV Urbani” value was 0.4, the “Binding of serum 1b to linear peptides of protein X5 of SARS-CoV Urbani” value worked out at 0.4 and the “Binding of serum 1b to looped/cyclic peptides of protein X5 of SARS-CoV Urbani” value is listed as 0.2. In addition, in test [2], the “Binding of serum 2 to linear peptides of protein X5 of SARS-CoV Urbani” value is on record as 0.5, the “Binding of serum 2 to looped/cyclic peptides of protein X5 of SARS-CoV Urbani” value amounted to 0.4, the “Binding of serum 6 to linear peptides of protein X5 of SARS-CoV Urbani” value turned out to be 0.4 and the “Binding of serum 6 to looped/cyclic peptides of protein X5 of SARS-CoV Urbani” value is 0.3. Further, in test [2], the “Binding of serum 37 to linear peptides of protein X5 of SARS-CoV Urbani” value was determined as 0.6, the “Binding of serum 37 to looped/cyclic peptides of protein X5 of SARS-CoV Urbani” value turned out to be 0.5, the “Binding of serum 62 to linear peptides of protein X5 of SARS-CoV Urbani” value was 0.7 and the “Binding of serum 62 to looped/cyclic peptides of protein X5 of SARS-CoV Urbani” value is reported as 0.6. In addition, in test [2], the “Binding of serum London to linear peptides of protein X5 of SARS-CoV Urbani” value is 0.6, the “Binding of serum London to looped/cyclic peptides of protein X5 of SARS-CoV Urbani” value is 0.2, the “Binding of serum SARS-green to linear peptides of protein X5 of SARS-CoV Urbani” value amounted to 0.4 and the “Binding of serum SARS-green to looped/cyclic peptides of protein X5 of SARS-CoV Urbani” value is 0.3. Moreover, in test [2], the “Binding of serum SARS-yellow to linear peptides of protein X5 of SARS-CoV Urbani” value is given as 0.3 and the “Binding of serum SARS-yellow to looped/cyclic peptides of protein X5 of SARS-CoV Urbani” value is recorded as 0.5. Further, in test [3], the “Binding of Control Serum Blood-Bank to Looped peptides” value turned out to be 0.3, the “Binding of Control serum Blood-bank to linear peptides” value was 0.8, the “Binding of Control serum LUMC to linear peptides” value turned out to be 0.5 and the “Binding of Control serum LUMC to looped peptides” value is 0.5.

As to LVVILRIGTQVLKTM, in test [1], the “Binding of a rabbit serum to linear peptides” value is reported as 0.4 and the “Binding of a rabbit serum to looped peptides” value is on record as 0.6. Moreover, in test [2], the “Binding of serum 1a to linear peptides of protein X2” value was found to be 0.7, the “Binding of serum 1a to looped/cyclic peptides of protein X2 of SARS-CoV Urbani” value was 0.6, the “Binding of serum 1b to linear peptides of protein X2” value came to 0.5 and the “Binding of serum 1b to looped/cyclic peptides of protein X2 of SARS-CoV Urbani” value is reported as 0.6. Also, in test [2], the “Binding of serum 2 to linear peptides of protein X2” value amounted to 0.5, the “Binding of serum 2 to looped/cyclic peptides of protein X2 of SARS-CoV Urbani” value came to 0.4, the “Binding of serum 6 to linear peptides of protein X2” value worked out at 0.4 and the “Binding of serum 6 to looped/cyclic peptides of protein X2 of SARS-CoV Urbani” value is 0.4. Further, in test [2], the “Binding of serum 37 to linear peptides of protein X2” value is reported as 0.6, the “Binding of serum 37 to looped/cyclic peptides of protein X2 of SARS-CoV Urbani” value turned out to be 0.4, the “Binding of serum 62 to linear peptides of protein X2” value came out at 0.7 and the “Binding of serum 62 to looped/cyclic peptides of protein X2 of SARS-CoV Urbani” value came to 0.7. Moreover, in test [2], the “Binding of serum London to linear peptides of protein X2” value is 0.5, the “Binding of serum London to looped/cyclic peptides of protein X2 of SARS-CoV Urbani” value is 0.3, the “Binding of serum SARS-green to linear peptides of protein X2” value was found to be 0.5 and the “Binding of serum SARS-green to looped/cyclic peptides of protein X2 of SARS-CoV Urbani” value worked out at 0.4. Moreover, in test [2], the “Binding of serum SARS-yellow to linear peptides of protein X2” value was 0.7 and the “Binding of serum SARS-yellow to looped/cyclic peptides of protein X2 of SARS-CoV Urbani” value turned out to be 0.5. Besides, in test [3], the “Binding of Control Serum Blood-Bank to Looped peptides” value is on record as 0.8, the “Binding of Control serum Blood-bank to linear peptides” value is recorded as 0.7, the “Binding of Control serum LUMC to linear peptides” value is 0.7 and the “Binding of Control serum LUMC to looped peptides” value turned out to be 0.6.

LYALIYFLQCINACR: in test [1], the “Binding of a rabbit serum to linear peptides” value was found to be 0.2 and the “Binding of a rabbit serum to looped peptides” value is 0.6. In test [2], the “Binding of serum 1a to linear peptides of protein X1 of SARS-CoV Urbani” value is 0.7, the “Binding of serum 1a to looped/cyclic peptide (PEPSCAN-ELISA)” value is given as 0.4, the “Binding of serum 1b to linear peptides of protein X1 of SARS-CoV Urbani” value worked out at 0.5 and the “Binding of serum 1b to looped/cyclic peptide (PEPSCAN-ELISA)” value is recorded as 0.3. In test [2], the “Binding of serum 2 to linear peptides of protein X1 of SARS-CoV Urbani” value came to 0.5, the “Binding of serum 2 to looped/cyclic peptide (PEPSCAN-ELISA)” value came out at 0.6, the “Binding of serum 6 to linear peptides of protein X1 of SARS-CoV Urbani” value stood at 0.5 and the “Binding of serum 6 to looped/cyclic peptide (PEPSCAN-ELISA)” value is listed as 0.7. Also, in test [2], the “Binding of serum 37 to linear peptides of protein X1 of SARS-CoV Urbani” value is reported as 0.6, the “Binding of serum 37 to looped/cyclic peptide (PEPSCAN-ELISA)” value was found to be 0.6, the “Binding of serum 62 to linear peptides of protein X1 of SARS-CoV Urbani” value was 0.6 and the “Binding of serum 62 to looped/cyclic peptide (PEPSCAN-ELISA)” value was determined as 0.5. Further, in test [2], the “Binding of serum London to linear peptides of protein X1 of SARS-CoV Urbani” value stood at 0.3, the “Binding of serum London to looped/cyclic peptide (PEPSCAN-ELISA)” value is listed as 1.2, the “Binding of serum SARS-green to linear peptides of protein X1 of SARS-CoV Urbani” value was determined as 0.1 and the “Binding of serum SARS-green to looped/cyclic peptide (PEPSCAN-ELISA)” value was 0.2. Moreover, in test [2], the “Binding of serum SARS-yellow to linear peptides of protein X1 of SARS-CoV Urbani” value turned out to be 0.4 and the “Binding of serum SARS-yellow to looped/cyclic peptide (PEPSCAN-ELISA)” value amounted to 0.2. Moreover, in test [3], the “Binding of Control Serum Blood-Bank to Looped peptides” value came to 0.4, the “Binding of Control serum Blood-bank to linear peptides” value came out at 0.7, the “Binding of Control serum LUMC to linear peptides” value came to 0.6 and the “Binding of Control serum LUMC to looped peptides” value is given as 0.6.
